# Measurements reported in PMC3376217 (2012).
# Where two headings read alike, the source gives them in different places.
# Experiments:
# [1] = molecular target: T1, TOR2 (Saccharomyces cerevisiae, UniProt P32600); assay: IP radiometric kinase assay on PHAS-I; type: biochemical
# [2] = molecular target: T1, TOR2; assay: IP radiometric kinase assay on PHAS-I; type: biochemical; remark: listed apart in the source
Compound,IC50 [1],IC50 [2]
CCC(=O)N1CCN(c2ccc(-n3c(=O)ccc4cnc5ccc(-c6cnc7ccccc7c6)cc5c43)cc2C(F)(F)F)CC1 [Torin1],250 to 500 nM,
Nc1ccc(-c2ccc3ncc4ccc(=O)n(-c5ccc(F)c(C(F)(F)F)c5)c4c3c2)cn1 [QL-IX-55],,~50 nM
